ChEMBL document CHEMBL4177637, “Proapoptotic modification of substituted isoindolinones as MDM2-p53 inhibitors” (2017)
Calls of active or inactive are those of the source. No cut-off for these calls is given here.

Key:
HCT-116 [1] = assay: Growth inhibition of human p53 knockdown HCT116 cells after 48 hrs by Hoechst 33258 staining based fluorescence assay; assay type: functional; conditions: HCT-116, 48 h
HCT-116 [2] = assay: Growth inhibition of human HCT116 cells harboring p53+/+ after 48 hrs by Hoechst 33258 staining based fluorescence assay; assay type: functional; conditions: HCT-116, 48 h
U2OS = assay: Induction of apoptosis in human U2OS cells at 10 uM after 24 hrs by Annexin V-FITC/propidium iodide based FACS analysis (Rvb= 0.1%); assay type: functional
[3] = molecular target: Tumour suppressor p53/oncoprotein Mdm2 (Homo sapiens) (UniProt P04637+Q00987); assay: Inhibition of MDM2/p53 in human HCT116 cells at 10 uM after 24 hrs by Western blot method; assay type: cell-based
Sequence of Tumour suppressor p53/oncoprotein Mdm2 (Homo sapiens) (P04637 whole entry, looked up): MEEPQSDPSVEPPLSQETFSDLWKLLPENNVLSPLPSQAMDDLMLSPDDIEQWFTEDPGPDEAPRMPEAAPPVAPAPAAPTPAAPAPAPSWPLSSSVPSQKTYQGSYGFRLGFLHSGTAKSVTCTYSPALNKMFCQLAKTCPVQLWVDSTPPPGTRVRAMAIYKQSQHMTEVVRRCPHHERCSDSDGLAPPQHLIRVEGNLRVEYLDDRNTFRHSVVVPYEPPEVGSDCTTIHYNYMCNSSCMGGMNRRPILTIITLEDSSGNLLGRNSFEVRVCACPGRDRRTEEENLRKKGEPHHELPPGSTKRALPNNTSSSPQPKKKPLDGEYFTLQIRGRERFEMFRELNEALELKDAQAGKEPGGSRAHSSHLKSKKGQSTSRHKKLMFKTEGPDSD
Sequence of Tumour suppressor p53/oncoprotein Mdm2 (Homo sapiens) (Q00987 whole entry, looked up): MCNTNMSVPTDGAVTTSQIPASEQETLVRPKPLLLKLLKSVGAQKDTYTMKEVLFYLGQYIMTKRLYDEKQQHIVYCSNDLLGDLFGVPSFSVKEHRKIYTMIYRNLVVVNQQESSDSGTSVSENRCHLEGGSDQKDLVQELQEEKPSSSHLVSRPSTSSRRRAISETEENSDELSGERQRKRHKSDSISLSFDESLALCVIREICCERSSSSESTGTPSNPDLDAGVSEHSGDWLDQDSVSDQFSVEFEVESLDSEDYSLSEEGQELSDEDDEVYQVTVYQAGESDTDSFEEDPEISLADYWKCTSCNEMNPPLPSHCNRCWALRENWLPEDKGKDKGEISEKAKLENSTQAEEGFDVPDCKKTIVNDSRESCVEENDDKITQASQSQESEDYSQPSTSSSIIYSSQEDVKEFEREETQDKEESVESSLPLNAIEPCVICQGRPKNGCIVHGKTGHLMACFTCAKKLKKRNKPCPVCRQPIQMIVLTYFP

HCT-116 [4] = assay: Selectivity ratio of GI50 for human p53 knockdown HCT116 cells to GI50 for human HCT116 cells harboring p53+/+; assay type: functional

SMILES	GI50 (HCT-116 [1])	GI50 (HCT-116 [2])	Activity (U2OS)	inhibition [3]	RatioGI50 (HCT-116 [4])
CC(C)[C@H](N)C(=O)OCCCOC1(c2ccc(Cl)cc2)c2ccccc2C(=O)N1Cc1ccccc1 (stereo not given in full)	65 µM	20 µM			
COc1ccc(C2=N[C@@H](c3ccc(Cl)cc3)[C@@H](c3ccc(Cl)cc3)N2C(=O)N2CCNC(=O)C2)c(OC(C)C)c1 [NUTLIN-3]	27 µM	8 µM	31%		
N[C@H](C(=O)OCCCOC1(c2ccc(Cl)cc2)c2ccccc2C(=O)N1Cc1ccc(Cl)cc1)c1ccccc1 (stereo not given in full)	45 µM	12 µM			
CC(C)[C@H](N)C(=O)OCCCOC1(c2ccc(Cl)cc2)c2ccccc2C(=O)N1Cc1ccc(Cl)cc1 (stereo not given in full)	60 µM	16 µM			
O=C1c2ccccc2C(OCCCO)(c2ccc(Cl)cc2)N1Cc1ccccc1 (stereo not given)	90 µM	79 µM			
CC(=O)OCCCOC1(c2ccc(Cl)cc2)c2ccccc2C(=O)N1Cc1ccccc1 (stereo not given)	80 µM	50 µM			
O=C1c2ccccc2C(OCCCO)(c2ccc(Cl)cc2)N1Cc1ccc(Cl)cc1 (stereo not given)	68 µM	60 µM			
CC(C)(CO)COC1(c2ccc(Cl)cc2)c2ccccc2C(=O)N1Cc1ccccc1 (stereo not given)	82 µM	71 µM			
CC(C)[C@H](N)C(=O)OCC(C)(C)COC1(c2ccc(Cl)cc2)c2ccccc2C(=O)N1Cc1ccccc1 (stereo not given in full)	65 µM	20 µM			
CC(C)(CO)COC1(c2ccc(Cl)cc2)c2ccccc2C(=O)N1Cc1ccc(Cl)cc1 (stereo not given)	65 µM	50 µM	2%	Active	
CC(C)(COC(=O)[C@@H](N)c1ccccc1)COC1(c2ccc(Cl)cc2)c2ccccc2C(=O)N1Cc1ccc(Cl)cc1 (stereo not given in full)	38 µM	8 µM	33.1%	Active	<=4.75
CC(=O)OCCCOC1(c2ccc(Cl)cc2)c2ccccc2C(=O)N1Cc1ccc(Cl)cc1 (stereo not given)	68 µM	46 µM			
CC(=O)OCC(C)(C)COC1(c2ccc(Cl)cc2)c2ccccc2C(=O)N1Cc1ccc(Cl)cc1 (stereo not given)	70 µM	35 µM			
CC(C)[C@H](N)C(=O)OCC(C)(C)COC1(c2ccc(Cl)cc2)c2ccccc2C(=O)N1Cc1ccc(Cl)cc1 (stereo not given in full)	40 µM	11 µM			
CC(=O)OCC(C)(C)COC1(c2ccc(Cl)cc2)c2ccccc2C(=O)N1Cc1ccccc1 (stereo not given)	70 µM	38 µM			
N[C@H](C(=O)OCCCOC1(c2ccc(Cl)cc2)c2ccccc2C(=O)N1Cc1ccccc1)c1ccccc1 (stereo not given in full)	43 µM	14 µM			
CC(C)(COC(=O)[C@@H](N)c1ccccc1)COC1(c2ccc(Cl)cc2)c2ccccc2C(=O)N1Cc1ccccc1 (stereo not given in full)	44 µM	15 µM			
